Measured values as given in patent publication US20230000844A1, “BIOMARKERS FOR NANOPARTICLE COMPOSITIONS” (Abraxis BioScience, LLC, priority 2019, published 2023).
Each block holds one compound with its values, some of them ahead of it.

Experiments:
[1] = Stable isotope tracer ultrafiltration assay (SITUA) of rapamycin drug release from ABI-009 lots; type: physicochemical; conditions: 10 minutes incubation, 4.5% human serum albumin, 29° C.
Experimental: A study was also undertaken to analyze rapamycin drug release from 12 lots of ABI-009 (Lots #1-10 and Lots 14-15) using a stable isotope tracer ultrafiltration assay (SITUA) (see Skoczen et al., Stable Isotope Method to Measure Drug Release from Nanomedicines, J. Control Release, 220(A):169-174 (2015). Drug release was examined at 10 μg/ml and 500 μg/ml of rapamycin following 10 minutes of incubation. Briefly, stable, isotope-labeled rapamycin was spiked into 4.5% human serum albumin (25% Albutein HSA diluted in 0.9% saline). MeOH-solvent rapamycin (as a control) or fresh reconstituted samples of each lot at 10 μg/ml or 500 μg/ml were added. After 10 minutes of equilibration at 29° C., a portion of the sample is taken and filtered using Vivacon®) 10 kDa MWCO centrifuge devices prewarmed to 29° C. The sample and the ultrafiltrate are analyzed by LC-MS to determine the concentrations of normal rapamycin and isotope-labelled rapamycin. The ultrafilterable fraction of isotope-labeled rapamycin represents a measurement of free unbound fraction.
The encapsulated and unencapsulated nanoparticle fractions can also be calculated.

[2] = test system: non-PEComa cancer with TSC1, TSC2 or mTOR mutation; experiment: ABI-009 Expanded Access Protocol: single-agent ABI-009 in non-PEComa patients with relevant mTOR pathway mutations; type: in vivo, human; parameters: key: CR: disappearance of all target lesions; PR: at least a 30% decrease in the sum of the longest diameters (SLD) of target lesions; SD: neither sufficient shrinkage of target lesions to qualify for PR, nor sufficient increase to qualify for PD; PD: at least a 20% increase in the SLD of target lesions; conditions: Patient #4, metastatic epithelial ovarian carcinoma
Description: Seven patients were enrolled under ABI-009 Expanded Access Protocol. See Table 14 below for information about their tumor type, relevant mutation, failed prior therapy and response to ABI-009. ABI-009 was produced according to Example 7.

[3] = test system: ABCB1/ABCG2; conditions: cited from earlier work
[4] = in vivo; cited from earlier work
[5] = test system: malignant PEComa; experiment: Case: malignant PEComa patient (TSC1 mutation) who failed everolimus, then treated with nab-sirolimus; type: in vivo, human
Experimental: A post-menopausal person with family history of lymphoma in their parent and breast, ovarian cancer in a paternal aunt, presented with abnormal uterine bleeding in July 2018. […] Following this, a laparoscopic hysterectomy with bilateral salpingo-oophorectomy was performed and pathology was consistent with malignant PEComa which stained positive for smooth muscle actin, HMB-45 and Melan-A (59 mitoses per 10 hpf).
The primary tumor was locally advanced, and no metastatic disease was present at the time of diagnosis, adjuvant chemotherapy was not administered, and the patient was monitored with serial scans.
Upon disease progression, the patient was started on 10 mg everolimus orally daily.
After failure of treatment with everolimus, the patient was treated with nab-sirolimus at 100 mg/m^2 on day 1 and day 8 of a 21 day cycle started in July of 2019. They also received stereotactic radiosurgery to the metastatic lesion in their brain.

[6] = test system: tumors with TSC1 or TSC2 mutations; conditions: 2/30 patients; cited from earlier work

Avg. Release (%) ([1]; 10 μg/ml rapamycin): 97.2% | Avg. Release (%) ([1]; 500 μg/ml rapamycin): 18.3%
Compound: CO[C@H]1C[C@@H]2CC[C@@H](C)[C@@](O)(O2)C(=O)C(=O)N2CCCC[C@H]2C(=O)O[C@H]([C@H](C)C[C@@H]2CC[C@@H](O)[C@H](OC)C2)CC(=O)[C@H](C)/C=C(\C)[C@@H](O)[C@@H](OC)C(=O)[C@H](C)C[C@H](C)/C=C/C=C/C=C/1C [Free rapamycin]

Compound: CC(C)n1nc(-c2ccc3oc(N)nc3c2)c2c(N)ncnc21 [MLN0128]
best response on prior MLN0128 [2]: SD

Compound: COc1ccc(COc2cc3oc(=O)c4cc(C(C)O)ccc4c3cc2OC)cc1 (centres unmarked) [Palomid 529]
affinity for ABCB1/ABCG2 [3]: lacks affinity | brain penetration [4]: good brain penetration

Compound: CO[C@H]1C[C@@H]2CC[C@@H](C)[C@@](O)(O2)C(=O)C(=O)N2CCCC[C@H]2C(=O)O[C@H]([C@H](C)C[C@@H]2CC[C@@H](OCCO)[C@H](OC)C2)CC(=O)[C@H](C)/C=C(\C)[C@@H](O)[C@@H](OC)C(=O)[C@H](C)C[C@H](C)/C=C/C=C/C=C/1C [everolimus]
CT scan result 2 months after starting everolimus ([5]; everolimus 10 mg orally daily, reduced to 5 mg): progressive disease | adverse event related to everolimus ([5]; three weeks after beginning 10 mg orally daily): hospitalized due to fever and headache | responses in patients with TSC1 or TSC2 mutations [6]: 7%
